Results on five compounds are retold here after patent US7189742B2, “Piperidin-2,6-dione bisulphate salts and their use for the treatment of stress related affective disorders” (Prestwick Pharmaceuticals, Inc., priority 2001, dated 2007).

Data set [1] can be described thus: Body weights, behaviour and withdrawal signs in the CMS study. It is filed as in vivo, rat. The following applies: for effect of chronic treatment on body weights: 5 weeks, imipramine 10 mg/kg i.p., AGN 2979 bisulphate 1, 4, 16 mg/kg p.o.; for signs of withdrawal after cessation of treatment: stressed or control animals, one week after cessation. How it is done: (§1) Male Wistar rats were brought into the laboratory 2 months before the start of the experiment, at which time they weighed approx. 300 g. Except as described below, all animals were singly housed, with food and water freely available, and maintained on a 12-hour light/dark. The animals were first trained to consume a 1% sucrose solution. Training consisted of nine 1-hour baseline tests in which sucrose was presented in pre-weighed bottles, in the home cage, and, following 14 hours food and water deprivation; the sucrose intake was measured by weighing the pre-weighed bottles at the end of the test. Subsequently, sucrose consumption was monitored, under similar conditions, at weekly intervals throughout the whole experiment.
(§2) On the basis of their sucrose intakes in the final baseline test, the animals were divided into two matched groups. One group of animals was subjected to a chronic mild stress (“CMS”) procedure for a period of 9 consecutive weeks. Each week of stress regime consisted of: two periods of food or water deprivation, two periods of 45 degree cage tilt, two periods of intermittent illumination (lights on and off every 2 hours), two periods of soiled cage (250 ml water in sawdust bedding), two periods of paired housing, two periods of low intensity stroboscopic illumination, and two periods of no stress. All stressors were of 10–14 hours duration and were applied individually and continuously, day and night. Control animals were housed in a separate room and had no contact with the stressed animals. They were deprived of food and water for the 14 hours preceding each sucrose test, but otherwise food and water were freely available in the home cage. […] After five weeks, all treatments were terminated and after one week of withdrawal a final sucrose test was carried out. Stress was continued throughout the period of treatment and withdrawal.

Data set [2] can be described thus: Effect of AGN 2979 bisulphate on rat weight (0.36% in diet). It is filed as in vivo, Male Spraque-Dawley rats. The following applies: after initial period of 3 or 4 days, about 230 mg/kg. How it is done: 4 Male Spraque-Dawley rats were fed with their standard laboratory diet to which had been added 0.36% AGN 2979 bisulphate for a period of 9 days and their weight monitored on a daily basis and compared with 2 control rats receiving the standard laboratory diet without the bisulphate. For a rat weighing 360 g and consuming 23 g of the diet, the amount of AGN 2979 bisulphate consumed was about 230 mg/kg. The results are shown in Table 1 below, in which the bisulphate is identified as “AGN 2979 BS”. […] In particular, the test rats lost or merely maintained their body weight. The weight gains after an initial 3 day period for the two control rats and for test rats 3 and 6 are shown graphically in FIG. 1 and the weight gains for all 6 rats after an initial 4 day period are shown in FIG. 2.

Another data set concerns tryptophan hydroxylase. The following applies: no method or data given; cited from earlier work.
A further data set has as its system subject. The data set can be described thus: Single subject with obstructive sleep apnoea, oral maintenance treatment. It is filed as in vivo, human. How it is done:
A subject, height 178 cm and weighing 90 kilograms having had persistent awakening episodes of obstructive sleep apnoea (manifested by nocturnal choking) had been treated for several years with AGN 2979 hydrochloride, initially at a daily oral dose level of 120 mg and subsequently at a single oral maintenance dose of 120 mg every 4 days. […] The patient also reports that previous regular bouts of seasickness have been not recurred since treatment with AGN 2979 bisulphate.

Data set [3] relates to Male Wistar rats. The data set can be described thus: Chronic mild stress (CMS) model, consumption of 1% sucrose solution. It is filed as in vivo, rat. The settings on record: for consumption of sucrose solution one week after withdrawal from treatment: all drug-treated groups, control and stressed, stress continued; for consumption of sucrose solution in control animals / sucrose intake in stressed animals (treatment effect): 5 weeks. Here is the method: as §1, §2
Chronic mild stress causes a gradual decrease in the consumption of 1% sucrose solution. In the final baseline test, all animals drank approximately 12 g of sucrose solution. Following initial three weeks of stress, intakes remained at the same level in control animals but fell to 7.5 (±0.3) g in stressed animals. Such a difference between control and stressed animals treated with vehicle, persisted at similar level for the remainder of the experiment [Group effect: F(1,98)=67.256; P<0.001].

Data set [4] deals with Male Wistar rats. The settings on record: earlier studies, cited from earlier work.
A further data set relates to human patients. The settings on record: cited from earlier work; for treatment of anxiety and depression: about 4 mg/kg/day (200–400 mg/day for human patients).
The conditions of data set [5]: cited from earlier work.
The mark [6] stands for this setting: single oral maintenance dose of 65 mg every two days, one subject.
The mark [7] stands for this setting: stressed animals, 4 mg/kg p.o. daily.
[8] abbreviates: stressed animals, imipramine 10 mg/kg i.p. daily.

Structures can show the parent of a compound that is named as a salt. Where two headings read alike, the source gives them in different places.

As to `COc1cccc(C2(CCCN(C)C)C(=O)NC(=O)CC2(C)C)c1` (stereo not shown) [AGN 2979 bisulphate, 3(3-methoxyphenyl)-3-(3-dimethylaminopropyl)-4,4-dimethyl-piperidine-2,6-dione bisulphate], the behavioural impairments entry in data set [1] (16 mg/kg p.o., control and stressed animals, disappeared at end of third week) is “sedation, hypoactivity (but not catalepsy) and hyporeactivity to handling and drug injections”. Further, the “effect of chronic treatment on body weights” value in data set [1] (control and stressed animals) was “no significant effect on body weights”. In addition, the “signs of withdrawal after cessation of treatment” value in data set [1] is listed as “no signs of withdrawal were observed”. The “weight gain of test rats versus control rats” value in data set [2] was “the same as that of the control rats”. Moreover, the “activation of tryptophan hydroxylase by metabolic inhibitors (guanidine, sodium cyanide)” value with tryptophan hydroxylase is given as “blocked”. Further, the “nocturnal choking after suspension of administration” value in the data set on subject (administration suspended, one subject) is listed as “returned after three weeks”. In addition, in the data set on subject (patient report, since treatment), the bouts of seasickness result is given as “not recurred”. In addition, in the data set on subject (setting [6]), the “awakening episodes of obstructive sleep apnoea” value is on record as “continued absence of awakening episodes” and the side effects entry is “no side effects”. In the data set with Male Wistar rats [3], the “consumption of sucrose solution one week after withdrawal from treatment” value is “comparable to that observed in Week 5 of treatment”. In addition, in the data set on Male Wistar rats [3] (any of three doses 1, 4 and 16 mg/kg p.o. daily), the “consumption of sucrose solution in control animals” value is on record as “not changed”. Moreover, the “activity against stress-induced deficit in sucrose consumption” value (shortened to “activity against stress-induced deficit”) in the data set on Male Wistar rats [3] (stressed animals, 1 mg/kg p.o. daily) is “ineffective”. Besides, in the data set with Male Wistar rats [3] (setting [7]), the “activity against stress-induced deficit” value is recorded as “active”, the “onset of significant increase of sucrose intake” value was “within the first week of treatment” and the “sucrose solution drunk at end of treatment (Week 5) versus vehicle-treated controls” value is listed as “comparable to that of vehicle-treated controls”. Further, the “activity against stress-induced deficit” value in the data set on Male Wistar rats [3] (stressed animals, 16 mg/kg p.o. daily) is reported as “ineffective”. Besides, in the data set with Male Wistar rats [3] (stressed animals, 1, 4 and 16 mg/kg p.o. daily, overall), the “sucrose intake in stressed animals (treatment effect)” value is “gradual increase of sucrose intake”.

As to `CN(C)CCC=C1c2ccccc2CCc2ccccc21` [amitriptyline], the “efficacy against CMS-induced anhedonia when doses increased above threshold active ones” value in the data set with Male Wistar rats [4] is “not more effective”.

With `COc1cccc(C2(CCCN(C)C)C(=O)NC(=O)CC2(C)C)c1` (stereo not shown) [AGN 2979 hydrochloride, 3(3-methoxyphenyl)-3-(3-dimethylaminopropyl)-4,4-dimethylpiperidine-2,6-dione], the “anxiolytic properties at FDA permitted dose” value with human patients (1 mg b.i.d. (about 30 μg/kg/day), clinical study by Cutler et al) is “only marginally effective anxiolytic properties”. Besides, the “treatment of anxiety and depression” value is “effective in alleviating depression” with human patients and “effective” with human patients (listed as hydrochloride salt of AGN 2979). Further, the “adverse effects following discontinuation of chronic administration” value in the data set on human patients (previous clinical observations) was “does not cause any adverse effects following discontinuation”. Moreover, the post-mortem examination finding entry in data set [5] (200 mg/kg/day p.o., rats, 1 year, not detected by routine transaminase determinations) is “hepatocyte changes”. Besides, the weight loss in data set [5] (200 mg/kg/day p.o., rats, over the 1-year period) was 40%. The “weight of test rats compared with control rats” value in data set [5] (200 mg/kg, previous experiments) is on record as “continuing weight disparity (loss)”.

As for `O=C1CC2(CCCC2)CC(=O)N1CCCCN1CCN(c2ncccn2)CC1` [buspirone], in the data set on Male Wistar rats [4], the “efficacy against CMS-induced anhedonia when doses increased above threshold active ones” value is “not more effective”.

On to `CN(C)CCCN1c2ccccc2CCc2ccccc21` [imipramine], for which the “effect of chronic treatment on body weights” value in data set [1] (control and stressed animals) is recorded as “no significant effect on body weights”. Moreover, the “signs of withdrawal after cessation of treatment” value in data set [1] was “no signs of withdrawal were observed”. Further, the “consumption of sucrose solution one week after withdrawal from treatment” value in the data set on Male Wistar rats [3] was “comparable to that observed in Week 5 of treatment”. Besides, the “consumption of sucrose solution in control animals” value in the data set with Male Wistar rats [3] (imipramine 10 mg/kg i.p. daily) was “not changed”. Moreover, in the data set with Male Wistar rats [3] (setting [8]), the “onset of significant increase of sucrose intake” value was “after three weeks of treatment”; the “sucrose intake after five weeks of treatment versus vehicle-treated control animals” value is “no significant differences between drug-treated stressed and vehicle-treated control animals”; the “sucrose intake in stressed animals (treatment effect)” value was “gradual increase of sucrose intake”. Moreover, in the data set on Male Wistar rats [4] (imipramine 20 mg/kg per day), the “effects in CMS model at higher dose (magnitude and time-course)” value is on record as “caused similar effects”.
